Assays:
CXCR4 = CXCR4 (Homo sapiens, UniProt P61073); settings: Jurkat cells, 1 mM, 4° C. for 30 min
[1] = tested on: collagen-induced arthritis in DBA1/J mice; test: Therapeutic collagen-induced arthritis model in DBA1/J mice; assay type: in vivo, mouse; settings: for average AI (Arthritic Index): maximum AI=16
Method: 80 DBA1/J mice (male, 7-8 weeks) was received and placed in quarantine for 3 days with daily inspections. Ear tag mice for individual identification.
Individual mouse weights were recorded. Hind paw thickness were recorded by digital caliper. 80 mice subcutaneous were injected with collagen/CFA emulsion (0.05 ml/mouse; 100 μg/mouse collagens in CFA) using a 1 ml syringe fitted with a 25G needle. Mice returned to cages.
80 mice were boosted with collagen/ICFA emulsion. Then their individual weights were recorded.
Mice were scored for signs of arthritis:
7) Calculate Arthritic Index (AI) by addition of individual paw scores and record.
Mice with an AI score within a range of 2-6 were selected for assignment to groups for therapeutic dosing as in Table 4.
Begin intraperitoneal (IP) dosing once daily (QD) according to Table 4.
The compounds clobenpropit (CB) and IT1t were tested. CB and IT1t were stored at 4° C. […] These compounds were doses 7 days per week (Saturday and Sunday included) daily for 14 days.
Mice were weighed, scored for signs or arthritis, and hind paw thickness is measured by digital caliper three-times weekly (Monday, Wednesday and Friday). Any adverse reactions to treatment were recorded.
Termination: AI score were recorded for each limb. The paw thickness of the hind limbs is measured with digital caliper. Mice were anesthetized and exsanguinated into pre-chilled EDTA-tubes.
2) Plasma was assayed by ELISA for IL-1β, IL-6, TRAIL. Then, all limbs were collected.

[2] = tested on: Flu-stimulated pDC from wild type and H4R KO mice; assay type: cell-based, mouse; settings: CB 10 μM, overnight Influenza A
Flu-stimulated pDC = test: IFN-α production and membrane TRAIL by pDC cultured with Flu or Dengue; assay type: cell-based, human
Method: PBMC were seeded at 1.10^6/1 mL or purified pDC were seeded at 5.10^4/100 μl and then stimulated with the following viruses: inactivated AT-2 HIV-1MN (CXCR4 co-receptor specific) or AT-2 HIV-1ADA (CCR5 co-receptor specific) at 60 ng/mL p24^CA equivalent (provided by J. D. Lifson (SAIC-NCI, Frederick, Md.)), Infectious human Influenza A/PR/8/34 virus (Flu), titer 1:8192 at dilution 1:1000 or DENV-2 16681 at MOI 10. Infectious HIV-1MN [tissue culture 50% infective dose (TCID50)=[…]] and HIV-1ADA (TCID50=1,000) were used at the same concentration. Purified pDC were pre-treated with amino compounds for 1 hour, following overnight stimulation with virus. Supernatants were collected for cytokine detection. Microvesicles isolated from uninfected cell cultures matched to the culture to produce the virus were used as negative control (Mock).
The compounds were added in pDC culture at 10 μM (or other if specified) 1 hour before stimulation or not of the different viruses. For histamine, X-vivo culture media (Lonza) was used in order to avoid histaminases.
Cells were pre-incubated 1 hour with AMD (20 μM) (Sigma-Aldrich, MO, USA) prior to CB or histamine incubation. pDC were cultured in the presence of […] of the oligodinucleotide A151 (TTAGGG) ODN (Integrated DNA Technologies, Coralville, Iowa). […]

pDC = test: Cytotoxicity of compounds on cultured pDC; settings: 10 μM
[3] = tested on: 129S8 mice infected with Influenza A virus strain X31 (H3N2); settings: mouse, in vivo
[4] = 10 mg/kg IP once daily, at termination
[5] = 30 mg/kg IP once daily, at termination

Chain of CXCR4 (P61073 whole entry): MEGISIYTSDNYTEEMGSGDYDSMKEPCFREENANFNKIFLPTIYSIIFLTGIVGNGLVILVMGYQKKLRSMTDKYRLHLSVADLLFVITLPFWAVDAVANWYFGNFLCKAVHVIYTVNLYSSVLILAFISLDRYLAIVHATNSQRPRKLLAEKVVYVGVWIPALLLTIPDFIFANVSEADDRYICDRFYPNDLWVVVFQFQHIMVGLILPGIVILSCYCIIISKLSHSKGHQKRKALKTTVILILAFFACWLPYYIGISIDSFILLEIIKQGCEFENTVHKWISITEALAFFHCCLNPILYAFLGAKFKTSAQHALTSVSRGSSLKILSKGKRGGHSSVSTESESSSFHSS

Q: `NC(=NCc1ccc(Cl)cc1)SCCCc1cnc[nH]1` [Clobenpropit, clobenpropit] was tested. Which “binding of the CXCR4 antibody 12G5 on T cells” value (CXCR4) did it give?
A: inhibited

Q: What about the “reduction in terminal plasma concentration of IL-1β” value (“reduction … of IL-1β” below) ([1]; 3 mg/kg IP once daily) of the same compound?
A: 64%

Q: And the “reduction in terminal plasma concentration of IL-6” value (from here on “reduction … of IL-6”) ([1]; 3 mg/kg IP once daily)?
A: 49%

Q: What about the “reduction in terminal plasma concentration of TRAIL” value (from here on “reduction … of TRAIL”) ([1]; 3 mg/kg IP once daily) of the same compound?
A: had also an effect

Q: And the “inhibition of disease severity” value ([1]; 3 mg/kg IP once daily, Day 28-42, at termination (Day 42))?
A: 25%

Q: And the “average AI (Arthritic Index)” value ([1]; 3 mg/kg IP once daily, at termination (Day 42))?
A: 9.8

Q: What about the “reduction … of IL-1β” value ([1]; 10 mg/kg IP once daily) of the same compound?
A: 75%

Q: What about the “reduction … of IL-6” value ([1]; 10 mg/kg IP once daily) of the same compound?
A: 80%

Q: What about the “reduction … of TRAIL” value ([1]; 10 mg/kg IP once daily) of the same compound?
A: had also an effect

Q: And the “reduction in disease severity” value [1, 4]?
A: 66%

Q: And the “average AI (Arthritic Index)” value [1, 4]?
A: 4.4

Q: And the “reduction … of IL-1β” value ([1]; 30 mg/kg IP once daily)?
A: 82%

Q: And the “reduction … of IL-6” value ([1]; 30 mg/kg IP once daily)?
A: 82%

Q: What about the “reduction … of TRAIL” value ([1]; 30 mg/kg IP once daily) of the same compound?
A: significant reduction

Q: What about the “reduction in disease severity” value [1, 5] of the same compound?
A: 87%

Q: What about the “average AI (Arthritic Index)” value [1, 5] of the same compound?
A: 1.8

Q: And the “disease progression over the dose range” value ([1]; 3, 10 and 30 mg/kg daily intraperitoneal injection)?
A: dose-dependent inhibition

Q: What about the “IFN-α production by Flu-stimulated pDC from H4R KO mice” value [2] of the same compound?
A: inhibited

Q: What about the “IFN-α production by Flu-stimulated pDC from wild type mice” value [2] of the same compound?
A: inhibited

Q: And the “IFN-α production and membrane TRAIL expression by pDC cultured with Flu and Dengue” value (Flu-stimulated pDC)?
A: strongly inhibited

Q: And the “cytotoxicity on purified pDC” value (pDC)?
A: no cytotoxic effect

Q: What about the “IFN-α, IFN-β and IFN-λ2/3 protein production in bronchioalveolar lavage (BAL) fluid” value [3] of the same compound?
A: strong reduction

— patent US20190175557A1, “COMPOUNDS USEFUL FOR DECREASING INTERFERON LEVEL” (priority 2016, published 2019)
